The source of these data is patent publication US7582674B2, “Nutraceutical compositions and use thereof” (DSM IP Assets B.V., priority 2003, dated 2009).

In assay [1] the test system is murine macrophages RAW264.7. Nature of the assay: Inhibition of NO (nitrite, Griess reaction) production in LPS-stimulated macrophages. In kind it is cell-based. How it is done: (§1) In order to induce an in vitro ‘inflammatory response’, murine macrophages RAW264.7 were seeded into microtiter plates or 12-well plates and stimulated with lipopolysaccharide (LPS) without or with graded amounts of the test substances. Vehicle concentrations (i.e. DMSO) were kept constant. Culture supernatants were harvested after appropriate periods of time (4 to 24 hours). Prostaglandin E2 (PGE2) and nitrite produced from nitric oxide (NO) secreted into the culture medium were quantified by ELISA and the Griess reaction, respectively. The percentage of inhibition of PGE2 or NO production at a given concentration of the test substances (compared to maximal production by LPS-stimulated cells) was calculated.
On the technique in general: The Griess reaction detects nitrite, a stable product of nitric oxide.

In assay [2] the test system is murine macrophages RAW264.7. Nature of the assay: Inhibition of PGE2 (ELISA) production in LPS-stimulated macrophages. In kind it is cell-based. To be noted: combination = actually determined inhibition. How it is done: as §1

Compound `CCC=CCC=CCC=CCC=CCC=CCCCC(=O)O` [EPA, 5,8,11,14,17-eicosapentaenoic acid] showed an inhibition at 12.5 µM in assay [1] (Mus musculus, RAW264.7, Table 2, LPS stimulated macrophages, EPA 12.5 μM) of 12.9%.
With `Oc1ccc(C=Cc2cc(O)cc(O)c2)cc1` [Resveratrol, resveratrol], the inhibition at 10 µM in assay [2] (Mus musculus, RAW264.7, Table 1, each substance at 10 μM) was 26.8%; in assay [1] (Mus musculus, RAW264.7, Table 1, LPS-stimulated macrophages, each substance at 10 μM, combination = actually determined inhibition) it was 8.3%. Also, testing at 2 µM in assay [1] (Mus musculus, RAW264.7, Table 2, LPS stimulated macrophages, Resveratrol 2 μM) gave an inhibition of 10%.
In the case of (−)-Epigallocatechin gallate [EGCG], in assay [2] (Table 1, each substance at 10 μM), the “% inhibition PGE2” value is reported as 1.8%. Besides, the “% inhibition NO” value in assay [1] (Table 1, LPS-stimulated macrophages, each substance at 10 μM, combination = actually determined inhibition) is recorded as 4.4%.

For orientation: inhibition means the percentage by which the read-out fell short of the control.
